Holding throughout (format): in vitro ADME
Data set [1] addresses T1, UGT1A7 (Homo sapiens, UniProt Q9HAW7).
T1 construct: purchased BD Gentest Corp. (Woburn, MA, USA); host or cells: baculovirus-infected insect cells
T1 sequence (Q9HAW7 26-530): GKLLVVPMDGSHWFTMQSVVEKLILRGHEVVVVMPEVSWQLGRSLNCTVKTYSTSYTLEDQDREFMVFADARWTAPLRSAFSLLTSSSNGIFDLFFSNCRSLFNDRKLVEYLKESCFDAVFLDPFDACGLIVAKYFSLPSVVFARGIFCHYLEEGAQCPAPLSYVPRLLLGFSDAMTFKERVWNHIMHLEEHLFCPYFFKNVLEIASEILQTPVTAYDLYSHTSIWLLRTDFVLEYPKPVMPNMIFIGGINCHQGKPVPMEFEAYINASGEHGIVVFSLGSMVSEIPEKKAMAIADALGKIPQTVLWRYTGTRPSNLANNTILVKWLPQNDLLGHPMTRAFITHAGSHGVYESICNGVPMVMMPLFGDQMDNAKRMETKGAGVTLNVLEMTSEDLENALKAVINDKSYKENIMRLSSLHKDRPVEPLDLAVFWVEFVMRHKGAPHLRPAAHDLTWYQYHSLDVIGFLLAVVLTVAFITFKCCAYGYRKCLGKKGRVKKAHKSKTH
The data set is described as follows: Recombinant UGT1A7-catalyzed 4-MU glucuronidation inhibition. Particulars: pH 7.4, probe 4-methylumbelliferone (4-MU), UGT1A7, 100 μM of compound, 4-MU substrate, read-out: residual activity. An excerpt: (§1) 4-Methylumbelliferone (4-MU), 4-methylumbelliferone-β-D-glucuronide (4-MUG), Tris-HCl, 7-hydroxycoumarin, and uridine-5′-diphosphoglucuronic acid (UDPGA) (trisodium salt) were purchased from Sigma-Aldrich (St. Louis, MO). Recombinant human UGT isoforms (UGT1A1, UGT1A3, UGT1A4, UGT1A6, UGT1A7, UGT1A8, UGT1A9, UGT1A10, UGT2B4, UGT2B7, and UGT2B15) expressed in baculovirus-infected insect cells were obtained from BD Gentest Corp. (Woburn, MA, USA). Ophiopogonin D (OD), ophiopogonin D′ (OD′), methylophiopogonanone A (MA), methylophiopogonanone B (MB), and ruscorectal (RU) were purchased from Sichuan Weikeqi Biotechnology Company (Chengdu, Sichuan, China). The purity of these compounds was above 95%. All other reagents were of HPLC grade or of the highest grade commercially available.
(§2) 4-MU, the nonspecific probe substrate for all the UGT isoforms except UGT1A4, was used in the present study to initially screen the inhibition potential of maidong's components towards UGT isoforms as previously reported. In brief, the incubation system (total volume = 200 μL) consisted of recombinant UGTs, 5 mM UDPGA, 5 mM MgCl2, 50 mM Tris-HCl (pH = 7.4), and 4-MU in the absence or presence of different concentrations of maidong's components. The compounds were dissolved in DMSO, and the final concentration of DMSO was below 0.5% (v/v). The used incubation time and protein concentration were previously determined to ensure the reaction rate within the linear range. The 4-MU concentration was equal to known K m or S 50 values for each UGT isoform. After 5 min preincubation at 37°C, the incubation reaction was initiated via adding UDPGA to the mixture system. The reactions were quenched by adding 100 μL acetonitrile with 7-hydroxycoumarin (100 μM) as internal standard. Centrifuged at 20000 ×g for 10 min, an aliquot of supernatant was transferred to an autoinjector vial for HPLC analysis. The HPLC system (Shimadzu, Kyoto, Japan) contained a SCL-10A system controller, two LC-10AT pumps, a SIL-10A autoinjector, and a SPD-10AVP UV detector. Chromatographic separation was carried out using a C18 column (4.6 × 200 mm, 5 μm, Kromasil) at a flow rate of 1 mL/min and UV detector at 316 nm. The mobile phase consisted of acetonitrile (A) and H2O containing 0.5% (v/v) formic acid (B). The following gradient condition was used: 0–15 min, 95–40% B; 15–20 min, 10% B; 20–30 min, 95% B.

The target in data set [2] is T2, UGT2B7 (Homo sapiens, UniProt P16662).
T2 construct: purchased BD Gentest Corp. (Woburn, MA, USA); host or cells: baculovirus-infected insect cells
T2 sequence (P16662 24-529): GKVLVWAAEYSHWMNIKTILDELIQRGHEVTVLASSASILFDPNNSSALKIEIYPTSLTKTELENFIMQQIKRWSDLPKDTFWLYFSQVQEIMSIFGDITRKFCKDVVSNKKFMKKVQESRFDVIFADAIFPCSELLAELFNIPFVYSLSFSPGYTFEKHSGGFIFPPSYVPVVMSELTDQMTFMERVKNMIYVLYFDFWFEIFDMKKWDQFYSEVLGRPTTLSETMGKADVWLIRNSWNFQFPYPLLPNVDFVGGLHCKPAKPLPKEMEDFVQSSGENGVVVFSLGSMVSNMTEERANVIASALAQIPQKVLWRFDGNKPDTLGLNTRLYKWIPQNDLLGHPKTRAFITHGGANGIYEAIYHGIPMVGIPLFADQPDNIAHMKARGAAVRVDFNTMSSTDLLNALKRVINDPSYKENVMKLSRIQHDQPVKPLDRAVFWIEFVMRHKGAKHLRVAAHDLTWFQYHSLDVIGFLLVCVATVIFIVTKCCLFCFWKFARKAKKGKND
In words: Recombinant UGT2B7-catalyzed 4-MU glucuronidation inhibition. Particulars: pH 7.4, probe 4-methylumbelliferone (4-MU), UGT2B7, 100 μM of compound, 4-MU substrate, read-out: residual activity.
Text: as §1, §2

Data set [3] addresses T3, UGT2B15 (Homo sapiens, UniProt P54855).
T3 construct: purchased BD Gentest Corp. (Woburn, MA, USA); host or cells: baculovirus-infected insect cells
T3 sequence (P54855 24-530): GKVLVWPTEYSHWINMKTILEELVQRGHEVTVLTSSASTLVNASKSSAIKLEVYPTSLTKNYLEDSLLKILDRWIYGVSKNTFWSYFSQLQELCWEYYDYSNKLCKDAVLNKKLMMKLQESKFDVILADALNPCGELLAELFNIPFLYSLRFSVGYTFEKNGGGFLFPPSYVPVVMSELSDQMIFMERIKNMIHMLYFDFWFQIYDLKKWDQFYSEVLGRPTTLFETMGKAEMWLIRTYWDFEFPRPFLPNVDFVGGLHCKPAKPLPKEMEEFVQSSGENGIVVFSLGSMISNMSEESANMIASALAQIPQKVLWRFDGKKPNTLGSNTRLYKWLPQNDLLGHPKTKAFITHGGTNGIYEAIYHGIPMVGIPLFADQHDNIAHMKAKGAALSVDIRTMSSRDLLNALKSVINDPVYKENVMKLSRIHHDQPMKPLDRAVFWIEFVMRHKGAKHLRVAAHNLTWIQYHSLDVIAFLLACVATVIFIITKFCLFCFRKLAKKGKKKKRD
The data set is described as follows: Recombinant UGT2B15-catalyzed 4-MU glucuronidation inhibition. Particulars: pH 7.4, probe 4-methylumbelliferone (4-MU), UGT2B15, 100 μM of compound, 4-MU substrate, read-out: residual activity.
Text: as §1, §2

For the molecule `Cc1c(O)c(C)c2c(c1O)C(=O)[C@H](Cc1ccc3c(c1)OCO3)CO2` [MA, methylophiopogonanone A], the activity at 100 µM in data set [1] came to 57.5 ± 10.8%; in data set [2], 23.3 ± 16.7%; in data set [3] it was 23.8 ± 2.8%.

For `CC1CCC2(OC1)OC1CC3C4CC=C5CC(O)CC(O)C5(C)C4CCC3(C)C1C2C` (stereo not drawn) [RU, ruscorectal], the activity at 100 µM turned out to be 52.4 ± 7.4% in data set [1], 125 ± 59% in data set [2] and 55.5 ± 19.6% in data set [3].

In the case of `COc1ccc(C[C@@H]2COc3c(C)c(O)c(C)c(O)c3C2=O)cc1` [MB, methylophiopogonanone B], the activity at 100 µM was found to be 83.4 ± 5.9% in data set [1], 82.8 ± 14.5% in data set [2] and 56.1 ± 9.8% in data set [3].

`C[C@@H]1CC[C@@]2(OC1)O[C@H]1C[C@H]3[C@@H]4CC=C5C[C@@H](O[C@@H]6O[C@H](CO)[C@@H](O)[C@H](O[C@@H]7OC[C@@H](O)[C@H](O)[C@H]7O)[C@H]6O[C@@H]6O[C@@H](C)[C@H](O)[C@@H](O)[C@H]6O)CC[C@]5(C)[C@H]4CC[C@]3(C)[C@H]1[C@@H]2C` [OD′, ophiopogonin D′]: the activity at 100 µM in data set [1] was 122 ± 1.3%; in data set [2], 77.4 ± 7.1%; in data set [3], 35.5 ± 1.7%.

As for `C[C@@H]1CC[C@@]2(OC1)O[C@H]1C[C@H]3[C@@H]4CC=C5C[C@@H](O)C[C@@H](O[C@@H]6O[C@H](C)[C@H](O)[C@H](O[C@@H]7OC[C@@H](O)[C@H](O)[C@H]7O)[C@H]6O[C@@H]6O[C@@H](C)[C@H](O)[C@@H](O)[C@H]6O)[C@]5(C)[C@H]4CC[C@]3(C)[C@H]1[C@@H]2C` [OD, ophiopogonin D], the activity at 100 µM in data set [1] came out at 144 ± 8.7%; in data set [2], 85.4 ± 7.3%; in data set [3] it was 36.9%.

These data come from publication PMC4229968, “The Inhibition of the Components from Shengmai Injection towards UDP-Glucuronosyltransferase” (Evidence-based Complementary and Alternative Medicine : eCAM, 2014).
